Our source for the LC retention time values is the RepoRT retention time repository (doi:10.1016/j.foodchem.2021.129757).

Where a name gives a salt, the structure may show the parent alone.

The nature of the first series: RP, Waters ACQUITY UPLC HSS T3, 100 × 2.1 mm, 1.8 µm, 30 °C, 0.4 mL/min, estimated dead time 0.55 min; A: water + 0.1% formic acid, pH 3; B: acetonitrile + 0.1% formic acid, pH 3; gradient (min/%B) 0/0 2/0 15/100 22/100 22.1/0 26/0. Conditions: stereoisomer not certain.
`COc1ccc(-c2oc3cc(O)cc(O)c3c(=O)c2O)cc1O` [Tamarixetin]: the LC retention time is 11.9 min.
On the same count and under the same terms, for `OCC(Cc1cccc(O)c1)C(CO)Cc1cccc(O)c1` (configuration not stated) [Enterodiol] the value was 10.6 min.

A further series is described as follows: RP, Agilent ZORBAX Eclipse XDB-C18, 100 × 2.1 mm, 1.8 µm, 50 °C, 0.4 mL/min, estimated dead time 0.55 min; A: water + 0.1% formic acid, pH 3; B: methanol + 0.1% formic acid, pH 3; gradient (min/%B) 0/2 10/100 14.5/100 14.51/2 16.5/2. As to conditions: stereoisomer not certain.
In the case of `O=C(O)Cc1cccc(O)c1` [3-hydroxyphenylacetic acid], the LC retention time was 3.55 min.
Still for that read-out and setting: for `Cn1c(=O)c2[nH]cnc2n(C)c1=O` [Theophylline] the value was 3.05 min; for `O=Cc1cccc(O)c1` [3-Hydroxybenzaldehyde], 3.72 min; for `NCCc1c[nH]c2ccccc12` [Tryptamine], 2.51 min.
On the same count and under the same terms, the result for `Nc1ccc(C(=O)O)cc1` [4-Aminobenzoic acid] reads 2.08 min; that for `Cc1cc2nc3c(=O)[nH]c(=O)nc-3n(CC(O)C(O)C(O)CO)c2cc1C` (configuration not stated) [Riboflavin], 4.17 min; that for `COc1cc(C(O)C(=O)O)ccc1O` (configuration not stated) [Vanillylmandelic acid], 1.65 min.

Another series can be described thus: RP, Waters ACQUITY UPLC BEH C18, 100 × 2.1 mm, 1.7 µm, 65 °C, 0.4 mL/min, estimated dead time 0.55 min; A: water + 0.1% formic acid, pH 3; B: 80% acetonitrile + 20% acetone + 0.1% formic acid, pH 3; gradient (min/%B) 0/0 5/100 5.5/0 6/0. Conditions: stereoisomer not certain.
For `COc1cc(CC(CO)C(CO)Cc2ccc(O)c(OC)c2)ccc1O` (single isomer, unassigned; (-)) [(-)-Secoisolariciresinol], the LC retention time is 2.4 min.
On the same count and under the same terms, for `O=C(O)CNC(=O)c1cccc(O)c1` [3-Hydroxyhippuric acid] the value was 1.58 min; for `Cc1cc(C(=O)O)ccc1O` [4-Hydroxy-3-methylbenzoic acid], 2.03 min.
Same read-out and setting: for `O=C1OCC(Cc2cccc(O)c2)C1Cc1cccc(O)c1` (configuration not stated) [Enterolactone] the value was 2.88 min; for `CC(O)(CCO)CC(=O)[O-]` (configuration not stated) [Mevalonic acid], 1.35 min; for `Cn1c(=O)c2[nH]cnc2n(C)c1=O` [Theophylline], 1.5 min.
The same measure, in the same setting: the result for `COc1ccc(-c2oc3cc(O)cc(O)c3c(=O)c2O)cc1O` [Tamarixetin] reads 2.96 min; that for `CC1(O)Cc2c(O)cc(O)cc2OC1c1ccc(O)c(O)c1` (configuration not stated) [3-Methylepicatechin], 1.99 min.
In the case of `CC12C=Cc3occc3C1CCC13CC(CCC12)C(O)(CO)C3` (configuration not stated) [Kahweol], the LC retention time is 3.73 min.
Still for that read-out and setting: for `COc1cc(C(C)=O)ccc1O` [4'-Hydroxy-3'methoxyacetophenone] the value was 2.18 min; for `COc1cccc(OC)c1O` [2,6-Dimethoxyphenol], 2.36 min.
On the same count and under the same terms, for `O=Cc1c[nH]c2ccccc12` [Indole-3-carbaldehyde] the value was 2.32 min; for `NCCc1c[nH]c2ccccc12` [Tryptamine], 1.51 min.
Still for that read-out and setting: for `Nc1ccc(C(=O)O)cc1` [4-Aminobenzoic acid] the value was 1.53 min.
For `Cc1cc2nc3c(=O)[nH]c(=O)nc-3n(CC(O)C(O)C(O)CO)c2cc1C` (configuration not stated) [Riboflavin], the LC retention time is 1.73 min.
In the case of `O=C(O)C1OC(Oc2cc(O)c3c(=O)c(-c4ccc(O)cc4)coc3c2)C(O)C(O)C1O` (configuration not stated) [Genistein 7-O-glucuronide], the LC retention time was 2.1 min.
Still for that read-out and setting: the result for `O=C(O)CC(O)c1ccccc1` (configuration not stated) [3-hydroxy-3-phenylpropionic acid] reads 2.06 min; that for `COc1cc(CC(=O)O)ccc1OS(=O)(=O)O` [Homovanillic acid sulfate], 1.45 min.
Still for that read-out and setting: for `C=C1CCC(O)CC1=CC=C1CCCC2(C)C1CCC2C(C)C=CC(C)C(C)(C)O` (configuration not stated) [25-Hydroxyvitamin-D2] the value was 5.07 min.
Still for that read-out and setting: for `O=C1CCCCN1` [2-Piperidinone] the value was 1.37 min.
Turning to `O=C(O)c1ccc2ccccc2n1` [Quinaldic acid], the LC retention time is 1.68 min.
Same read-out and setting: for `COc1cc(CC2COC(=O)C2Cc2ccc(O)c(OC)c2)ccc1O` (single isomer, unassigned; (-)) [(-)-Matairesinol] the value was 2.86 min; for `COc1cc(C(O)C(=O)O)ccc1O` (configuration not stated) [Vanillylmandelic acid], 1.42 min.
Still for that read-out and setting: the result for `CC(C)C(O)(CC(=O)O)C(=O)O` (configuration not stated) [2-Isopropylmalic acid] reads 1.72 min.

The next series is described as follows: RP, Waters ACQUITY UPLC BEH Shield RP18, 150 × 2.1 mm, 1.7 µm, 40 °C, 0.4 mL/min, estimated dead time 0.83 min; A: water + 0.1% formic acid, pH 3; B: acetonitrile + 0.1% formic acid, pH 3; gradient (min/%B) 0/0 30/50 31/100 37/100 37.1/0. Conditions: stereoisomer not certain.
Regarding `C=C1C(=O)OC2C1CCC(C)=C1C(=O)C=C(COC(=O)C(=O)O)C12` (configuration not stated) [8-deoxylactucin-15-oxalate], the LC retention time was 14.5 min.
Same read-out and setting: the result for `O=C1c2c(O)cc(O)cc2OC(c2ccc(O)cc2)C1O` (configuration not stated) [Dihydrokaempferol] reads 15.3 min.

The nature of another series: RP, Agilent ZORBAX RRHD Eclipse Plus C18, 50 × 2.1 mm, 1.8 µm, 30 °C, 0.4 mL/min, estimated dead time 0.28 min; A: water + 0.1% formic acid, pH 3; B: acetonitrile + 0.1% formic acid, pH 3; gradient (min/%B) 0/1 5/10 8/25 9.1/99 10/99 12/1. Conditions: stereoisomer not certain.
Consider `COc1ccc(CCC(=O)O)cc1O` [Dihydroisoferulic acid], for which the LC retention time was 7.68 min.
Turning to `O=C(O)Cc1cccc(O)c1` [3-hydroxyphenylacetic acid], the LC retention time is 5.69 min.
Same read-out and setting: for `O=C(O)CNC(=O)c1cccc(O)c1` [3-Hydroxyhippuric acid] the value was 3.58 min; for `O=C(O)C=Cc1ccc(OC2OC(C(=O)O)C(O)C(O)C2O)cc1` (configuration not stated) [p-Coumaric acid-4-O-glucuronide], 3.8 min.
The same measure, in the same setting: the result for `O=C(O)C=Cc1ccc(O)c(OC2OC(C(=O)O)C(O)C(O)C2O)c1` (configuration not stated) [Caffeic acid-3-glucuronide] reads 5.23 min.
On the same count and under the same terms, the result for `Oc1cccc(O)c1` [Resorcinol] reads 2.66 min; that for `COc1cccc(OS(=O)(=O)O)c1O` [1-Methyl-pyrogallol-O-sulfate], 4 min; that for `CC(Oc1ccc(O)cc1)C(=O)O` (single isomer, unassigned; (+)) [(+)-2-(4-Hydroxyphenoxy)propionic acid], 6.31 min.
On to `O=C(O)Cc1ccccc1` [Phenylacetic acid], for which the LC retention time was 7.64 min.
Still for that read-out and setting: for `O=Cc1cccc(O)c1` [3-Hydroxybenzaldehyde] the value was 5.91 min.
The same measure, in the same setting: the result for `COc1c(O)cccc1OS(=O)(=O)O` [2-Methyl-pyrogallol-O-sulfate] reads 2.89 min; that for `Cc1ccc(OS(=O)(=O)O)c(O)c1` [4-Methylcatechol-1-O-sulfate], 5.96 min.
Turning to `COc1cc(CCC(=O)O)ccc1OC1OC(C(=O)O)C(O)C(O)C1O` (configuration not stated) [Dihydroferulic acid-4-O-glucuronide], the LC retention time is 5.64 min.
The same measure, in the same setting: for `O=C(O)C=Cc1ccc(OS(=O)(=O)O)cc1` [p-Coumaric acid 4-O-sulfate] the value was 5.25 min; for `O=C(O)C=Cc1ccc(OS(=O)(=O)O)c(O)c1` [caffeic acid-4-O-sulfate], 5.28 min; for `O=S(=O)(O)Oc1cccc(O)c1O` [Pyrogallol-1-O-sulfate], 1.56 min.
Regarding `Cc1ccc(O)c(OS(=O)(=O)O)c1` [4-Methylcatechol-2-O-sulfate], the LC retention time is 5.96 min.
Same read-out and setting: for `COc1ccc(C(=O)O)cc1O` [Isovanillic acid] the value was 5.2 min; for `O=C1CCC(Cc2ccc(OS(=O)(=O)O)c(O)c2)O1` (configuration not stated), 6.09 min; for `COc1ccc(C2Oc3cc(O)cc(O)c3CC2O)cc1O` (configuration not stated) [4'-O-methylepicatechin], 7.85 min.
Still for that read-out and setting: for `COc1cc(CC(=O)O)ccc1OS(=O)(=O)O` [Homovanillic acid sulfate] the value was 4.48 min.
On the same count and under the same terms, for `O=C(O)C=Cc1ccc(O)c(OS(=O)(=O)O)c1` [Caffeic acid-3-O-sulfate] the value was 4.86 min.
`O=C(O)C1OC(Oc2cc(O)c3c(=O)c(O)c(-c4ccc(O)c(O)c4)oc3c2)C(O)C(O)C1O` (configuration not stated) [Quercetin-7-O-glucuronide]: the LC retention time was 7.84 min.
On the same count and under the same terms, for `COc1ccc(CCC(=O)O)cc1OS(=O)(=O)O` [Dihydro isoferulic acid-3-O-sulfate] the value was 6.39 min; for `COc1ccc(C(=O)O)c(O)c1` [2-hydroxy-4-methoxybenzoic acid], 8.98 min.

A further series in a line: RP, Agilent ZORBAX RRHD Eclipse Plus C18, 50 × 2.1 mm, 1.8 µm, 30 °C, 0.4 mL/min, estimated dead time 0.28 min; A: water + 0.1% formic acid, pH 3; B: acetonitrile + 0.1% formic acid, pH 3; gradient (min/%B) 0/1 5/10 8/25 9.1/99 10/99 12/99. Conditions: stereoisomer not certain.
For `COc1ccc(CCC(=O)O)cc1O` [Dihydroisoferulic acid], the LC retention time is 5.06 min.
With `O=C(O)Cc1cccc(O)c1` [3-hydroxyphenylacetic acid], the LC retention time was 4.67 min.
With `O=C(O)CNC(=O)c1cccc(O)c1` [3-Hydroxyhippuric acid], the LC retention time is 1.88 min.
On the same count and under the same terms, the result for `O=C(O)C=Cc1ccc(OC2OC(C(=O)O)C(O)C(O)C2O)cc1` (configuration not stated) [p-Coumaric acid-4-O-glucuronide] reads 1.85 min; that for `O=C(O)C=Cc1ccc(O)c(OC2OC(C(=O)O)C(O)C(O)C2O)c1` (configuration not stated) [Caffeic acid-3-glucuronide], 4.14 min; that for `Oc1cccc(O)c1` [Resorcinol], 1.44 min.
The same measure, in the same setting: for `COc1cccc(OS(=O)(=O)O)c1O` [1-Methyl-pyrogallol-O-sulfate] the value was 1.96 min; for `CC(Oc1ccc(O)cc1)C(=O)O` (single isomer, unassigned; (+)) [(+)-2-(4-Hydroxyphenoxy)propionic acid], 3.73 min; for `O=C(O)Cc1ccccc1` [Phenylacetic acid], 4.65 min.
The same measure, in the same setting: the result for `COc1c(O)cccc1OS(=O)(=O)O` [2-Methyl-pyrogallol-O-sulfate] reads 1.12 min; that for `Cc1ccc(OS(=O)(=O)O)c(O)c1` [4-Methylcatechol-1-O-sulfate], 3.83 min; that for `COc1cc(CCC(=O)O)ccc1OC1OC(C(=O)O)C(O)C(O)C1O` (configuration not stated) [Dihydroferulic acid-4-O-glucuronide], 5.15 min.
As for `Oc1cc(O)c2c(c1)OC(c1ccc(O)c(O)c1)C(O)C2` (single isomer, unassigned; (+)) [(+)-Catechin], the LC retention time was 4.65 min.
Same read-out and setting: for `O=C(O)C=Cc1ccc(OS(=O)(=O)O)cc1` [p-Coumaric acid 4-O-sulfate] the value was 3.78 min.
Still for that read-out and setting: for `O=C(O)C=Cc1ccc(OS(=O)(=O)O)c(O)c1` [caffeic acid-4-O-sulfate] the value was 5.5 min; for `O=S(=O)(O)Oc1cccc(O)c1O` [Pyrogallol-1-O-sulfate], 0.774 min.
Same read-out and setting: for `Cc1ccc(O)c(OS(=O)(=O)O)c1` [4-Methylcatechol-2-O-sulfate] the value was 3.83 min; for `COc1ccc(C(=O)O)cc1O` [Isovanillic acid], 1.99 min; for `O=C1CCC(Cc2ccc(OS(=O)(=O)O)c(O)c2)O1` (configuration not stated), 5.42 min.
On to `COc1cc(CC(=O)O)ccc1OS(=O)(=O)O` [Homovanillic acid sulfate], for which the LC retention time was 2.12 min.
The same measure, in the same setting: for `O=C(O)C=Cc1ccc(O)c(OS(=O)(=O)O)c1` [Caffeic acid-3-O-sulfate] the value was 3.99 min; for `O=C(O)C1OC(Oc2cc(O)c3c(=O)c(O)c(-c4ccc(O)c(O)c4)oc3c2)C(O)C(O)C1O` (configuration not stated) [Quercetin-7-O-glucuronide], 8.38 min.
Still for that read-out and setting: for `COc1ccc(CCC(=O)O)cc1OS(=O)(=O)O` [Dihydro isoferulic acid-3-O-sulfate] the value was 5.06 min.

The nature of another series: RP, Agilent InfinityLab Poroshell 120 EC-C18, 100 × 3 mm, 2.7 µm, 25 °C, 0.4 mL/min, estimated dead time 1.1 min; A: water + 0.1% formic acid, pH 3; B: acetonitrile + 0.1% formic acid, pH 3; gradient (min/%B) 0/5 10/25 20/40 24/90 25/90 26/5 30/5. Conditions: stereoisomer not certain.
Regarding `COc1cc(CC(CO)C(CO)Cc2ccc(O)c(OC)c2)ccc1O` (single isomer, unassigned; (-)) [(-)-Secoisolariciresinol], the LC retention time is 11.5 min.
`O=C1OCC(Cc2cccc(O)c2)C1Cc1cccc(O)c1` (configuration not stated) [Enterolactone]: the LC retention time was 17.4 min.
Same read-out and setting: the result for `OCC(Cc1cccc(O)c1)C(CO)Cc1cccc(O)c1` (configuration not stated) [Enterodiol] reads 13.5 min; that for `O=C(O)C1OC(Oc2cc(O)c3c(=O)c(-c4ccc(O)cc4)coc3c2)C(O)C(O)C1O` (configuration not stated) [Genistein 7-O-glucuronide], 9.6 min.
